Measured values reported in ChEMBL document CHEMBL5038632, “Discovery and Characterization of Potent Dual P-Glycoprotein and CYP3A4 Inhibitors: Design, Synthesis, Cryo-EM Analysis, and Biological Evaluations” (J Med Chem, 2022).

Key:
[1] = Efflux ratio of apparent permeability across apical to basolateral to basolateral to apical membrane membrane in MDCK1 at 1 uM in presence of valspodar; type: ADME, cell-based, Canis lupus familiaris; conditions: dog, MDCK, with valspodar (concentration not stated)
[2] = test system: MDR1; assay: Efflux ratio of apparent permeability across apical to basolateral to basolateral to apical membrane in MDCKII-MDR1 at 1 uM; type: ADME, cell-based, Canis lupus familiaris; conditions: dog, MDCK-MDR1
[3] = test system: MDR1; assay: Efflux ratio of apparent permeability across apical to basolateral to basolateral to apical membrane membrane in MDCKII-MDR1at 1 uM in presence of valspodar; type: ADME, cell-based, Canis lupus familiaris; conditions: dog, MDCK-MDR1, with valspodar (concentration not stated)
[4] = test system: MDR1; assay: Apparent permeability across basolateral side to apical side in MDCKII-MDR1 cells at 1 uM by LC/MS/MS analysis; type: ADME, cell-based, Canis lupus familiaris; conditions: dog, MDCK-MDR1
[5] = Efflux ratio of apparent permeability across apical to basolateral to basolateral to apical membrane membrane in MDCK1 at 1 uM; type: ADME, cell-based, Canis lupus familiaris; conditions: dog, MDCK
[6] = test system: MES-SA/Dx5; assay: Cytotoxicity in human MES-SA/Dx5 cells assessed as reduction in cell viability at 1.28 uM incubated for 3 days by MTT assay relative to control; type: toxicity, cell-based; conditions: mes-sa/dx5, 72 h, time 3 day
[7] = molecular target: Cytochrome P450 3A4 (Homo sapiens, UniProt P08684); assay: Inhibition of CYP3A4 in human liver microsomes using IPA as substrate preincubated for 10 mins followed by NADPH generating system addition and measured after 20 mins
Sequence of Cytochrome P450 3A4 (P08684 whole entry): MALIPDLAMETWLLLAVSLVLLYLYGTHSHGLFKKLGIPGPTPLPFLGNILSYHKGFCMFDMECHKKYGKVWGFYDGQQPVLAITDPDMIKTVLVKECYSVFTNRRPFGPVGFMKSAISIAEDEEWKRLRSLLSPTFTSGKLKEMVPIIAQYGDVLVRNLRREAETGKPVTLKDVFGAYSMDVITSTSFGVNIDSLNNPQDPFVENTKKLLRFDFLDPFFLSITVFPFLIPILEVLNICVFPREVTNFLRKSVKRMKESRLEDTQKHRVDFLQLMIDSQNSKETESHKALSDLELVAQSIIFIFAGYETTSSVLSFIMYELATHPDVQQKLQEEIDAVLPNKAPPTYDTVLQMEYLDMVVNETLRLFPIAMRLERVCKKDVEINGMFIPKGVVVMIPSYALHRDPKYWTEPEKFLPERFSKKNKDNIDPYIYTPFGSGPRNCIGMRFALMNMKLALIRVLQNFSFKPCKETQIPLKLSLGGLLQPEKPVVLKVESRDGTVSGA

[8] = test system: MDR1; assay: Apparent permeability across basolateral side to apical side in MDCKII-MDR1 cells at 3 uM by LC/MS/MS analysis; type: ADME, cell-based, Canis lupus familiaris; conditions: dog, MDCK-MDR1
[9] = test system: MDR1; assay: Apparent permeability across apical to basolateral side in MDCKII-MDR1 cells at 3 uM by LC/MS/MS analysis; type: ADME, cell-based, Canis lupus familiaris; conditions: dog, MDCK-MDR1
[10] = test system: MDR1; assay: Efflux ratio of apparent permeability across apical to basolateral to basolateral to apical membrane membrane in MDCKII-MDR1at 3 uM in presence of valspodar; type: ADME, cell-based, Canis lupus familiaris; conditions: dog, MDCK-MDR1, with valspodar (concentration not stated)
[11] = Efflux ratio of apparent permeability across apical to basolateral to basolateral to apical membrane membrane in MDCK1 at 3 uM; type: ADME, cell-based, Canis lupus familiaris; conditions: dog, mdck1, 3 µM
[12] = Apparent permeability across basolateral side to apical side in MDCK1 cells at 3 uM by LC/MS/MS analysis; type: ADME, cell-based, Canis lupus familiaris; conditions: dog, MDCK
[13] = Half life in CD-1 mouse at 20 mg/kg, po 30 mins prior to 10 mg/kg, po docetaxel administration measured after 8 hrs by LC-MS/MS analysis; type: ADME, organism-based; conditions: in vivo, time 8.5 hrs
[14] = Cmax in CD-1 mouse at 20 mg/kg, po 30 mins prior to 10 mg/kg, po docetaxel administration measured after 8 hrs by LC-MS/MS analysis; type: ADME, organism-based; design: route oral, time 8.5 hrs, dose 20 mg/kg; conditions: in vivo
[15] = Tmax in CD-1 mouse at 20 mg/kg, po 30 mins prior to 10 mg/kg, po docetaxel administration measured after 8 hrs by LC-MS/MS analysis; type: ADME, organism-based; conditions: in vivo, time 8.5 hrs
[16] = Apparent permeability across apical to basolateral side in MDCK1 cells at 3 uM by LC/MS/MS analysis; type: ADME, cell-based, Canis lupus familiaris; conditions: dog, MDCK
[17] = test system: MDR1; assay: Efflux ratio of apparent permeability across apical to basolateral to basolateral to apical membrane membrane in MDCKII-MDR1 at 3 uM; type: ADME, cell-based, Canis lupus familiaris; conditions: dog, MDCK-MDR1
[18] = AUC (0 to t) in CD-1 mouse at 20 mg/kg, po 30 mins prior to 10 mg/kg, po docetaxel administration measured after 8 hrs by LC-MS/MS analysis; type: ADME, organism-based; design: route oral, dose 20 mg/kg, time 8.5 hrs; conditions: in vivo
[19] = Efflux ratio of apparent permeability across apical to basolateral to basolateral to apical membrane membrane in MDCK1 at 3 uM in presence of valspodar; type: ADME, cell-based, Canis lupus familiaris; conditions: dog, MDCK, with valspodar (concentration not stated)
[20] = Cmax in CD-1 mouse at 20 mg/kg, po by LC-MS/MS analysis; type: ADME, organism-based; design: route oral, dose 20 mg/kg; conditions: in vivo

SMILES | IC50 [7] | Activity [6] | other results
COc1cc2c(cc1OC)CN(CCc1ccc(-n3nnc(-c4cc(OCCc5cccnc5)ccc4NC(=O)c4cc(=O)c5ccccc5o4)n3)cc1)CC2 | 726 nM | 1% | –
COc1cc2c(cc1OC)CN(CCc1ccc(-n3nnc(-c4cc(OC)c(OC)cc4NC(=O)c4cc(=O)c5cc(-c6ccncc6)ccc5o4)n3)cc1)CC2 | > 9000 nM | 1% | –
COc1cc(NC(=O)c2cc(=O)c3ccccc3o2)c(-c2nnn(-c3ccc(CCN4CCc5ccncc5C4)cc3)n2)cc1OC | 1050 nM | 1% | –
COc1cc2c(cc1OC)CN(CCc1ccc(-n3nnc(-c4cc(OCc5ccncc5)ccc4NC(=O)c4cc(=O)c5ccccc5o4)n3)cc1)CC2 | > 9000 nM | 33% | –
COc1cc2c(cc1OC)CN(CCc1ccc(-n3nnc(-c4cc(OC)c(OC)cc4NC(=O)c4cc(=O)c5cc(Br)ccc5o4)n3)cc1)CC2 | > 9000 nM | 30% | –
COc1cc2c(cc1OC)CN(CCc1ccc(-n3nnc(-c4cc(OCc5cccnc5)ccc4NC(=O)c4cc(=O)c5ccccc5o4)n3)cc1)CC2 | > 9000 nM | 3% | –
COc1cc(NC(=O)c2cc(=O)c3ccccc3o2)c(-c2nnn(-c3ccc(CCN4CCn5cncc5C4)cc3)n2)cc1OCc1ccccc1 | 2040 nM | 13% | Papp B→A at 3 µM [8]: < 0.02 ×10⁻⁶ cm/s; Papp A→B at 3 µM [9]: < 0.02 ×10⁻⁶ cm/s
COc1cc2c(cc1OC)CN(CCc1ccc(-n3nnc(-c4cc(OC)c(OC)cc4NC(=O)c4cc(=O)c5cc(-n6ccnc6)ccc5o4)n3)cc1)CC2 | 3340 nM | 6% | –
COc1cc(NC(=O)c2cc(=O)c3ccccc3o2)c(-c2nnn(-c3ccc(CCN4CCc5cnccc5C4)cc3)n2)cc1OC | 1070 nM | 1% | Papp B→A at 3 µM [8]: < 0.02 ×10⁻⁶ cm/s; Papp A→B at 3 µM [9]: < 0.02 ×10⁻⁶ cm/s
COc1cc(NC(=O)c2cc(=O)c3ccccc3o2)c(-c2nnn(-c3ccc(CCN4CCc5ccc(-n6ccnc6)cc5C4)cc3)n2)cc1OC | 397 nM | 1% | –
COc1cc(NC(=O)c2cnc3ccccc3c2)c(-c2nnn(-c3ccc(CCN4CCc5cnccc5C4)cc3)n2)cc1OCc1ccccc1 | 851 nM | 3% | –
COc1cc(NC(=O)c2cc(=O)c3ccccc3o2)c(-c2nnn(-c3ccc(CCN4CCc5cnccc5C4)cc3)n2)cc1OCc1ccccc1 | 1240 nM | 3% | –
COc1cc2c(cc1OC)CN(CCc1ccc(-n3nnc(-c4cc(OCc5ccccc5)c(OC)cc4NC(=O)c4cc(=O)c5ccccc5o4)n3)cc1)CC2 | > 9000 nM | 30% | –
COc1cc2c(cc1OC)CN(CCc1ccc(-n3nnc(-c4cc(OC)c(OC)cc4NC(=O)c4ccc(-c5ccncc5)cc4)n3)cc1)CC2 | > 9000 nM | 11% | –
CC(=O)N1CCN(c2ccc(OCC3COC(Cn4ccnc4)(c4ccc(Cl)cc4Cl)O3)cc2)CC1 (configuration not stated) [KETOCONAZOLE] | – | 39% | –

More lines, main results first:

IC50 [7] | SMILES | Activity [6] | other results
> 9000 nM | COc1cc2c(cc1OC)CN(CCc1ccc(-n3nnc(-c4cc(OC)c(OC)cc4NC(=O)c4cc(=O)c5ccccc5o4)n3)cc1)CC2 | 6% | efflux ratio at 1 µM [1]: 1.36; efflux ratio at 1 µM [2]: 5.74; efflux ratio at 1 µM [3]: 1.73; Papp B→A at 1 µM [4]: 0.0049 ×10⁻⁶ cm/s; efflux ratio at 1 µM [5]: 1.83
> 9000 nM | COc1cc2c(cc1OC)CN(CCc1ccc(-n3nnc(-c4cc(OC)c(OC)cc4NC(=O)c4ccc(-c5cccnc5)cc4)n3)cc1)CC2 | 0% | –
> 9000 nM | COc1cc2c(cc1OC)CN(CCc1ccc(-n3nnc(-c4cc(Oc5ccncc5)ccc4NC(=O)c4cc(=O)c5ccccc5o4)n3)cc1)CC2 | 9% | –
> 9000 nM | COc1cc2c(cc1OC)CN(CCc1ccc(-n3nnc(-c4cc(OCc5cccnc5)c(OC)cc4NC(=O)c4cc(=O)c5ccccc5o4)n3)cc1)CC2 | 36% | –
516 nM | COc1cc2c(cc1OC)CN(CCc1ccc(-n3nnc(-c4cc(OC)c(OC)cc4NC(=O)c4ccc(-n5ccnc5)cc4)n3)cc1)CC2 | 5% | –
1470 nM | COc1cc2c(cc1OC)CN(CCc1ccc(-n3nnc(-c4cc(Oc5cccnc5)ccc4NC(=O)c4cc(=O)c5ccccc5o4)n3)cc1)CC2 | 2% | Papp B→A at 3 µM [8]: 0.002 ×10⁻⁶ cm/s; efflux ratio at 3 µM [10]: 0.093; Ratio [11]: < 0.22; Papp B→A at 3 µM [12]: < 0.002 ×10⁻⁶ cm/s; half-life [13]: 6.02 h; Cmax [14]: 2.46 ng/mL; Tmax [15]: 0.5 h; Papp A→B at 3 µM [16]: 0.0093 ×10⁻⁶ cm/s; efflux ratio at 3 µM [17]: 0.277; AUC(0-t) at 8.5 h [18]: 11.7 ng·h/mL; efflux ratio at 3 µM [19]: 0.085; Cmax [20]: 3.4 nM; Papp A→B at 3 µM [9]: 0.0072 ×10⁻⁶ cm/s
149 nM | COc1cc(NC(=O)c2cc(=O)c3ccccc3o2)c(-c2nnn(-c3ccc(CCN4CCn5cncc5C4)cc3)n2)cc1OC | 6% | –
305 nM | COc1cc(NC(=O)c2cc(=O)c3ccccc3o2)c(-c2nnn(-c3ccc(CCN4CCc5cc(-n6ccnc6)ccc5C4)cc3)n2)cc1OC | 10% | –
